Data on eight compounds can be found in US9556203B2, “Conformationally restricted P13K and mTOR inhibitors” (UNIVERSITAET BASEL, priority 2013, dated 2017).

In one experiment the test system is pS6 S235/236. Description: In-cell Western blot, pS6 S235/236. The conditions noted are these: Homo sapiens; A2058 cells, treated 1 h, normalized to α-Tubulin. It counts as cell-based. The method, then:
(§1) A2058 cells were plated at 20,000 cells/well in a 96-well plate (Perkin Elmer, Cat. No. 6005558) and 24 h later treated with different compounds for 1 h. […] Cells were fixed with 4% paraformaldehyde for 30 min at RT, washed 2 times with 1% BSA in PBS, permeabilized with 0.1% Triton X-100 in PBS/1% BSA for 30 min at rt and blocked with 5% goat serum in PBS/1% BSA/0.1% Triton X-100 for 30 min at rt. Cells were stained with primary antibody either with rabbit anti-pPKB S473 (1:500; Cell Signalling Technology, Cat. No. 4058) combined with mouse anti-α-Tubulin (1:2000; used for normalization; Sigma, Cat. No. T9026) or with rabbit anti-pS6 S235/S236 (1:500; Cell Signalling Technology, Cat. No. 4856) combined with mouse anti-α-Tubulin (1:2000; used for normalization) over night at 4° C. After 3 times 5 min wash with PBS/1% BSA/0.1% Triton cells were treated with the secondary antibodies goat-anti-mouse IRDye680 (LICOR, Cat. No. 926-68070) and goat-anti-rabbit IRDye800 (LICOR, 926-32211) (each diluted 1:500 in PBS/1% BSA/0.1% Triton) for 1 h while shaking in the dark. Cells were washed 3 times 5 min with PBS/1% BSA/0.1% Triton and plate scanned with the Odyssey Infrared Scanning system using both 700 and 800 nm channels. […] To correct for background staining in the data analysis wells were treated only with secondary antibodies.
(§2) For data analysis the mean background signal from channel 700 nm and 800 nm were subtracted from each signal in channel 700 nm and 800 nm, respectively. The signals in each channel were normalized to the 0% inhibition and then signal ratio 800 nm over 700 nm was performed to obtain the values for either pPBK S473 or pS6 S235/S236 normalized to α-Tubulin.
(§3) IC50 values of each compound were determined by plotting the normalized pPBK S473 and pS6 S235/S236 signals, respectively, versus the compound concentrations (in logarithmic scale) and then by fitting a sigmoidal dose-response curve with variable slope to the data using GraphPad™ Prism.

For another experiment, the target named is T1, PI3K alpha (p110α) (Homo sapiens, UniProt P42336).
T1 construct: purchased Life Technologies PV4789
T1 sequence (P42336 whole entry): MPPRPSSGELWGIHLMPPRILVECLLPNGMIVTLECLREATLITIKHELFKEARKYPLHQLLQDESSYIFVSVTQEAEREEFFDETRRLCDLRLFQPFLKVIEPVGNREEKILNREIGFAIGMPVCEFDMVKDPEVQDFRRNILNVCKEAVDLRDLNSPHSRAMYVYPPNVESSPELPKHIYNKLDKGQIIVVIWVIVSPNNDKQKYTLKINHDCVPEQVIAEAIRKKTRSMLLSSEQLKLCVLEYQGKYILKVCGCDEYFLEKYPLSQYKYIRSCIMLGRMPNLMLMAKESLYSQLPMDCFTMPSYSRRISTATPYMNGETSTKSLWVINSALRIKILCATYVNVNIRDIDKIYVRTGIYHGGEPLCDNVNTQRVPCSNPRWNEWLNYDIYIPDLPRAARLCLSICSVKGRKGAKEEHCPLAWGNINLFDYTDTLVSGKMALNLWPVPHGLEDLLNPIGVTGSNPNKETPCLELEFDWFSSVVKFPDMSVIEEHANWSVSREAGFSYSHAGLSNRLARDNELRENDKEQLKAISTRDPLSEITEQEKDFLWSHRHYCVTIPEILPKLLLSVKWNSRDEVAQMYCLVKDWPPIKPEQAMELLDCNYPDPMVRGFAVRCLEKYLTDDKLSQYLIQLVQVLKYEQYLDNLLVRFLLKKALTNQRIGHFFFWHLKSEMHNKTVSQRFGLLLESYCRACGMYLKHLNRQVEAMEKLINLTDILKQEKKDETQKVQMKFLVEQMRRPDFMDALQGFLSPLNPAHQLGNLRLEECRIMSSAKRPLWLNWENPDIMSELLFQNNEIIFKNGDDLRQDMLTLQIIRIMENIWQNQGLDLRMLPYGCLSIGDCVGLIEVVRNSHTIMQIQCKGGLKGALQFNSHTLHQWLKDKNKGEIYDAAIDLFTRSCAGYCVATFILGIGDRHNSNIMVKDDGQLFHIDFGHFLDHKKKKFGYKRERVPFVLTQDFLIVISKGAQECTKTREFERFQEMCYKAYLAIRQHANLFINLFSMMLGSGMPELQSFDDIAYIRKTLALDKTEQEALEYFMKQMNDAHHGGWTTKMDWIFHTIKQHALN
T1 sequence (P27986 whole entry partner): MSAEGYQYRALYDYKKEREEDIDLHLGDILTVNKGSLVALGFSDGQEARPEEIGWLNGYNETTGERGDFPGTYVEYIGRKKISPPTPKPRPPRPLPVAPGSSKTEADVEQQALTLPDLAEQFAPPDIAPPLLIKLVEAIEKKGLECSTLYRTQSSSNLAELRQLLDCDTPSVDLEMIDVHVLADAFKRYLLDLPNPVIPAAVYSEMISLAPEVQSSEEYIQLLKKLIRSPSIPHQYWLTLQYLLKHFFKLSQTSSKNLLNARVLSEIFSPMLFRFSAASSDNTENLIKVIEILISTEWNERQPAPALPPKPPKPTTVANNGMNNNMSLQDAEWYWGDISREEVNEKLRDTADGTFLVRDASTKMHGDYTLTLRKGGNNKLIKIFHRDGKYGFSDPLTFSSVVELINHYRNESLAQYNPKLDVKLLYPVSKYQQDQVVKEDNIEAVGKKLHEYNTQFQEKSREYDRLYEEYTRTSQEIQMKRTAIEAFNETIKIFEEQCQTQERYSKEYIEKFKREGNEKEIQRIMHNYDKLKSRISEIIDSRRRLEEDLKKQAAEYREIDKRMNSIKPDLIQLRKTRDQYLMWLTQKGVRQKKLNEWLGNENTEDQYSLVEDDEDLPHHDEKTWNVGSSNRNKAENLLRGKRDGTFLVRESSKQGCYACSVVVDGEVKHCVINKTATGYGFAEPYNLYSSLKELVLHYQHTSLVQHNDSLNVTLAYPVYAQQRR
Nature of the experiment: In vitro PI3K alpha binding assay (time-resolved FRET, Tracer 314). As to conditions: N-terminally His-tagged PI3K alpha, 20 nM Tracer 314, 1 h at rt. As for the experimental part:
N-terminally His-tagged PI3K alpha (Cat. No. PV4789; 0.49 mg/ml), Alexa Fluor® 647 labeled kinase Tracer 314 (Cat. No. PV6087), Biotin anti-His Tag antibody (Cat. No PV6089) and LanthaScreen® Eu-Streptavidin (Cat. No. PV5899) were purchased from Life Technologies. The 1× Kinase Buffer A consists of 50 mM HEPES pH 7.5, 10 mM MgCl2, 1 mM EGTA, and 0.01% (v/v) Brij-35 (Sigma Cat. No. B4184-100ML).
A 4-fold serial dilution of each compound to be tested was prepared in DMSO (master dilution) in a 96-well polystyrene plate (Falcon Cat. No. 353072, flat bottom) with the highest concentration at 1000 μM and the lowest at 0.004 μM. The master dilution series were diluted further 33.3-fold into Kinase Buffer A by transferring 5 μl of each concentration of diluted compound to 162 μl Kinase Buffer A in a new 96-well plate resulting to a 3-fold serially compound dilution. Based on a Tracer 314 titration experiment a working concentration of 20 nM was chosen. Therefore a 60 nM Tracer 314 solution in Kinase Buffer A was prepared resulting in a 3-fold concentrated solution. A 3-fold concentrated kinase/antibody solution at 15 nM kinase, 6 nM antibody and 6 nM Eu-Streptavidin was prepared in Kinase Buffer A. Five μl of each 3× serially diluted compound were dispensed in a 384-well plate in duplicate. Then to each well 5 μl of 3× kinase/antibody mixture was added followed by the addition of 5 μl 3× Tracer 314 solution. After 1 h incubation at rt, time-resolved FRET was measured with a Synergy 4 multi-mode microplate reader (Biotek Instruments) using the following settings: 100 μs delay before data collection, 200 μs time for data collection, 10 measurements per data point. Emission filter: 665 nm/8 nm with sensitivity set to 163 and 620 nm/10 nm with sensitivity set to 135; Excitation filter: 340 nm/30 nm; Dichroic mirror 400 nm.
For data analysis, emission ratio was calculated by dividing the signal emitted at 665 nm from the acceptor (Alexa Fluor® 647 labeled Tracer 314) by the signal emitted at 620 nm from the donor (Eu-labeled antibody). IC50 values of each compound were determined by plotting the emission ratio versus the compound concentrations (in logarithmic scale) and then by fitting a sigmoidal dose-response curve with variable slope to the data using GraphPad™ Prism.

For a further experiment, the system named is pPKB S473. Nature of the experiment: In-cell Western blot, pPKB S473. It counts as cell-based. As to conditions: Homo sapiens; A2058 cells, treated 1 h, normalized to α-Tubulin. The method, then: as §1, §2, §3

A word on the IC50: it is the concentration needed to halve the response being measured. With `Nc1cc(C(F)(F)F)c(-c2nc(N3CCOCC3)c3c(n2)N2CCOC[C@H]2C3)cn1` [Compound 6, (R)-5-(4-morpholino-5a,6,8,9-tetrahydro-5H-pyrimido[5′,4′:4,5]pyrrolo[2,1-c][1,4]oxazin-2-yl)-4-(trifluoromethyl)pyridin-2-amine], the IC50 with pS6 S235/236 was 696 nM; on PI3K alpha (p110α), 390 nM; with pPKB S473 it was 425 nM.

As to `Nc1ncc(-c2nc(N3CCOCC3)c3c(n2)N2CCOC[C@H]2C3)cn1` [Compound 9, (R)-5-(4-morpholino-5a,6,8,9-tetrahydro-5H-pyrimido[5′,4′:4,5]pyrrolo[2,1-c][1,4]oxazin-2-yl)pyrimidin-2-amine], the concentration for half-maximal inhibition (IC50) with pS6 S235/236 worked out at 65 nM; on PI3K alpha (p110α), 411 nM; with pPKB S473 it was 145 nM.

Consider `Nc1cc(C(F)(F)F)c(-c2nc(N3CCOCC3)c3c(n2)N2CCOC[C@@H]2C3)cn1` [Compound 22, (S)-5-(4-morpholino-5a,6,8,9-tetrahydro-5H-pyrimido[5′,4′:4,5]pyrrolo[2,1-c][1,4]oxazin-2-yl)-4-(trifluoromethyl)pyridin-2-amine], for which the figures for the IC50 with pS6 S235/236, at PI3K alpha (p110α) and in the experiment with pPKB S473 were 1090 nM, 98.1 nM and 428 nM, respectively.

As to `Nc1ncc(-c2nc(N3CCOCC3)c3c(n2)N2CCOC[C@@H]2C3)cn1` [Compound 25, (S)-5-(4-morpholino-5a,6,8,9-tetrahydro-5H-pyrimido[5′,4′:4,5]pyrrolo[2,1-c][1,4]oxazin-2-yl)pyrimidin-2-amine], the IC50 in the experiment with pS6 S235/236 turned out to be 98 nM; on PI3K alpha (p110α) it was 76 nM; in the experiment with pPKB S473 it was 154 nM.

`Nc1cc(C(F)(F)F)c(-c2nc(N3CCOCC3)nc3c2C[C@@H]2COCCN32)cn1` [Compound 38, (R)-5-(2-morpholino-5a,6,8,9-tetrahydro-5H-pyrimido[5′,4′:4,5]pyrrolo[2,1-c][1,4]oxazin-4-yl)-4-(trifluoromethyl)pyridin-2-amine]: the IC50 in the experiment with pS6 S235/236 is 9080 nM; on PI3K alpha (p110α), 2620 nM; with pPKB S473, 5910 nM.

With `Nc1ncc(-c2nc(N3CCOCC3)nc3c2C[C@@H]2COCCN32)cn1` [Compound 41, (R)-5-(2-morpholino-5a,6,8,9-tetrahydro-5H-pyrimido[5′,4′:4,5]pyrrolo[2,1-c][1,4]oxazin-4-yl)pyrimidin-2-amine], the results for the half-inhibitory concentration (IC50) in the experiment with pS6 S235/236, at PI3K alpha (p110α) and in the experiment with pPKB S473 were 574 nM, 231 nM and 575 nM, respectively.

Regarding `Nc1cc(C(F)(F)F)c(-c2nc(N3CCOCC3)nc3c2C[C@H]2COCCN32)cn1` [Compound 54, (S)-5-(2-morpholino-5a,6,8,9-tetrahydro-5H-pyrimido[5′,4′:4,5]pyrrolo[2,1-c][1,4]oxazin-4-yl)-4-(trifluoromethyl)pyridin-2-amine], the IC50 came to 2110 nM in the experiment on pS6 S235/236, 383 nM on PI3K alpha (p110α) and 833 nM with pPKB S473.

Regarding `Nc1ncc(-c2nc(N3CCOCC3)nc3c2C[C@H]2COCCN32)cn1` [Compound 57, (S)-5-(2-morpholino-5a,6,8,9-tetrahydro-5H-pyrimido[5′,4′:4,5]pyrrolo[2,1-c][1,4]oxazin-4-yl)pyrimidin-2-amine], the half-maximal inhibitory concentration (IC50) is 594 nM with pS6 S235/236, 1640 nM at PI3K alpha (p110α) and 1260 nM in the experiment with pPKB S473.
